Data as given in patent US20050143453A1, “Selective preventing and therapeutic agents for progressive lesion after organic damage” (priority 2000, published 2005).
Like-named read-outs stand apart in the source and are kept apart here.

What was measured:
[1] = Acute and chronic toxicity tests (Test Example 5); format: in vivo; conditions: subcutaneously 90 mg/kg/day for ten days
Procedure: Acute and Chronic Toxicity Tests
Toxicity test of benzyl 2-chloro-5-oxotetrahydrofuran-2-carboxylate represented by the formula (6-1) manufactured in Example 8 and ethyl 2-ketoglutarate represented by the formula (9-1) was carried out.

[2] = tested on: induction of effector macrophage by contact of human PBMC with mitomycin-treated human PBMC (allo-MLC); assay: SPFC production by allo-MLC stimulation (Test Example 2); format: cell-based
[3] = tested on: lesion of tubulointerstitial tissue / glomerulus; assay: Suppression of renal lesion in vivo by active metabolites (model not stated)
[4] = tested on: kidney of chronic puromycin nephrosis rat; assay: Puromycin chronic nephrosis model in rat (CPN, Test Example 4); format: in vivo
Procedure: Evaluation Using Puromycin Chronic Nephrosis Model in Rat
Male SD rat of 8 weeks age of about 250 g was used and […] of puromycin were intravenously administered once according to a method of Diamond, et al. (J. R. Diamond, I. Pesek, S. Ruggeri, M. J. Karnovsky: Essential fatty acid deficiency during acute puromycin nephrosis ameliorates late renal injury. Am. J. Physiol, 257: F798˜F807, 1989). There was induced a chronic puromycin nephrosis rat where albuminuria increased from about tenth to twelfth week. After eighth week from administration of puromycin, each of compound (9-1) and compound (6-1) was subcutaneously injected at the dose of 30 mg/kg/day everyday until the 22nd week.
As a functional evaluation of kidney, albumin in urine was measured every week using a kit for the measurement of albumin. On the 22nd week, the rat was killed and anatomized to observe functional and morphological changes of kidney.

[5] = tested on: induction of effector macrophage by contact of human PBMC with lipopolysaccharide; assay: SPFC production by LPS stimulation (Test Example 1); format: cell-based
Procedure: A suppressive effect of the test compound to effector macrophage induction was investigated in vitro by an induction and production system of spontaneous plaque-forming cell (SPEC) mentioned in M. Ishibashi, S. Jiang, Y. Kokado, S. Takahara, T. Sonoda: Immunopharmacologic effects of immunosuppressive agents explored by a new effector generation assay. Transplant Proc., 21: 1854-1858, 1989.
Heparin-added peripheral blood (40 ml) was collected from a healthy person and the same amount of EDTA-added physiological saline was added. PBMC were obtained by a specific gravity centrifugal method using Ficoll-Hypaque (manufactured by Pharmacia Fine Chemicals). Self-plasma was added thereto and allowed to stand at 37° C. for 10 minutes and platelets were removed by a low-speed centrifugal separation. RPMI 1640 liquid containing 15 μg/ml of gentamicin and 2 mM L-glutamine was used for washing the PBMC. Concentration of the PBMC was adjusted to 2×10^6 cells/ml using the same liquid.
Each 200 μl of a solution containing 2×10^6 PBMC/ml prepared in the step 1 were added to each well of a micro test plate, lipopolysaccharide (hereinafter, abbreviated as LPS) was diluted with the RPMI 1640 liquid to make the final concentration 80 μg/ml and the said LPS solution was added to each well of the 200 μl-micro test plate. Further, each 50 μl of human serum of type AB were added so as to make the concentration 10% by weight. Two such micro test plates were prepared.
After that, to the above two micro test plates was added a solution where the test compound was diluted with 1% by weight of DMSO so as to make the concentration of the test compound 1 μM. Similarly were prepared each two micro test plates where the final concentrations of the test compound were 0.1 μM, 0.01 μM and 0.001 μM.
The culture liquid prepared as such was incubated for 6 days at 37° C. in 5% CO2.
The effector macrophage induced after the incubation was all recovered using a rubber-policeman (spatula made of rubber). A Hanks solution containing 5 μg/ml of gentamicin was used for washing and, using the said solution, there was prepared a solution where the concentration of the induced effector macrophage was 2×10^6 per ml.
With regard to autologous erythrocytes, those which were preserved at 4° C. in a phosphate physiological saline (hereinafter, abbreviated as PBS) to which 0.1% by weight of AB serum and autologous erythrocytes obtained from PBMC separation were used were used. The preserved autologous erythrocytes were washed for three times with a Hanks solution to which no serum was added and made into a solution of 4% by weight concentration using the said Hanks solution. Poly-L-lysine was added to a Terasaki plate and washed with PBS every 20 minutes at 37° C., the above-mentioned autologous erythrocyte solution was added thereto immediately, the mixture was allowed to stand at 37° C. for 30 minutes and the erythrocytes which were not adhered to the plate were removed to prepare a Terasaki plate to which self-erythrocytes in a monolayer were adhered.
A Hanks solution (4 μl) was added to the said Terasaki plate, 4 μl of a solution containing the induced effector macrophage obtained in the step 3 were added thereto and the mixture was allowed to stand at 37° C. for 2 hours. After completion of the reaction, it was fixed by formalin. Numbers of the produced SPFC which were adhered or phagocytized were measured.
A mean SPFC production number was calculated from the measured values of SPFC production when the concentration of the test compound was the same. SPFC production number per 1×10^6 of the induced effector macrophage was calculated and, from the recovered induced effector macrophage numbers, total SPFC production amount (S2) was calculated.
As a control, no test compound was added and the same operation as above was carried out to calculate the total SPFC production amount (S1). […]

[6] = 30 mg/kg/day subcutaneously from 8th to 22nd week after puromycin

SMILES: CCOC(=O)C(=O)CCC(=O)O [(9-1), ethyl 2-ketoglutarate]
- toxicity finding [1]: an increase in weights of the liver and the spleen in a light degree
- IC50 ([2]; Table 5, read-out: Inhibiting Concentration for SPEC Production by allo-MLC Stimulation (μM: IC50)): 0.01 µM
- IC50 ([2]; human PBMC with mitomycin-treated human PBMC, incubated 6 days, Table 1, read-out: SPFC Production Inhibiting Concentration by all-MLC Stimulation (μM: IC50)): 0.01 µM
- Functional Classification ([2]; selectivity allo-MLC versus LPS stimulation, Table 1): Group I
- suppression of lesion in tubulointerstitial tissue in vivo [3]: shows an activity for suppressing
- suppression of lesion of tubulointerstitial tissues ([4]; 30 mg/kg/day subcutaneously): well suppressed
- Rate of Cases where Glomerular Lesion was Suppressed [4, 6]: 50% (3/6)
- Rate of Cases where Lesion of Tubulointerstitial Tissue was Suppressed [4, 6]: 83% (5/6)
- IC50 ([5]; Table 5, read-out: Inhibiting Concentration for SPEC Production by LPS Stimulation (μM: IC50)): > 1 µM
- IC50 ([5]; human PBMC with LPS 80 μg/ml, incubated 6 days, Table 1, read-out: SPFC Production Inhibiting Concentration by LPS Stimulation (μM: IC50)): > 1 µM
